According to US20250049948A1, “NOVEL IONIZABLE LIPIDS AND LIPID NANOPARTICLES AND METHODS OF USING THE SAME” (Sail Biomedicines, Inc., priority 2021, published 2025):

What was measured:
[1] = Apparent LNP pKa, TNS assay; type: physicochemical; conditions: LNP with FLUC/EPO 1:1 mRNA
Protocol: For pKa measurement, a […] assay was conducted according to those described in Sabnis et al., Molecular Therapy, 26(6):1509-19), which is incorporated herein by reference in its entirety. Briefly, 20 buffers (10 mM sodium phosphate, 10 mM sodium borate, 10 mM sodium citrate, and 150 mM sodium chloride, in distilled Water) of unique pH values ranging from 3.0-12.0 were prepared using 1M sodium hydroxide and 1M hydrochloric acid. 3.25 μL of a LNP composition (0.04 mg/mL mRNA, in PBS) was incubated with 2 μL of TNS reagent (0.3 mM, in DMSO) and 90 μL of buffer for each pH value (described above) in a 96-well black-walled plate. Each pH condition was performed in triplicate wells. The TNS fluorescence was measured using a Biotek Cytation Plate reader at excitation/emission wavelengths of 321/445 nm. The fluorescence values were then plotted and fit using a 4-parameter sigmoid curve. From the fit, the pH value yielding the half-maximal fluorescence was calculated and reported as the apparent LNP pKa value.

Balb/c mice [2] = experiment: In-vivo bioluminescent imaging of LNP compositions (Example 6); conditions: for Bioluminescence (IV) Liver / Bioluminescence (IV) Lung / Bioluminescence (IV) Spleen / Bioluminescence (IV) Whole Body: 4-6 hours post-dose; for Spleen: Liver Ratio: intravenous
[3] = mRNA encapsulation efficiency, Quant-iT RiboGreen RNA Assay; type: physicochemical
Protocol: (§1) For each LNP composition, the lipid mix and mRNA solution were mixed at a 1:3 ratio by volume, respectively, on a NanoAssemblr Ignite (Precision Nanosystems) at a total flow rate of 9 mL/min. The resulting compositions were then loaded into Slide-A-Lyzer G2 dialysis cassettes (10 k MWCO) and dialyzed in 200 times sample volume of 1×PBS for 2 hours at room temperature with gentle stirring. The PBS was refreshed, and the compositions were further dialyzed for at least 14 hours at 4° C. with gentle stirring. The dialyzed compositions were then collected and concentrated by centrifugation at 3000×g using Amicon Ultra centrifugation filters (100 k MWCO). The concentrated particles were characterized for size, polydispersity, and particle concentration using Zetasizer Ultra (Malvern Panalytical) and for mRNA encapsulation efficiency using Quant-iT RiboGreen RNA Assay Kit (ThermoFisher Scientific).

Balb/c mice [4] = experiment: EPO levels in plasma, EPO MSD kit (Example 6); type: in vivo; conditions: mRNA dose 5 μg FLUC + 5 μg EPO, intravenous
[5] = LNP size and polydispersity, Zetasizer Ultra; type: physicochemical
Protocol: as §1

[6] = mRNA dose 5 μg FLUC (CRE/FLUC 1:1 LNP)

pKa (TNS) [1]	% EE ([3]; LNP with FLUC/EPO 1:1 mRNA)	PDI ([5]; LNP with FLUC/EPO 1:1 mRNA)	Size (nm) ([5]; LNP with FLUC/EPO 1:1 mRNA)	SMILES	Bioluminescence (IV) Liver (Balb/c mice [2]; mRNA dose 5 μg FLUC + 5 μg EPO)	Bioluminescence (IV) Lung (Balb/c mice [2]; mRNA dose 5 μg FLUC + 5 μg EPO)	Bioluminescence (IV) Spleen (Balb/c mice [2]; mRNA dose 5 μg FLUC + 5 μg EPO)	Bioluminescence (IV) Whole Body (Balb/c mice [2]; mRNA dose 5 μg FLUC + 5 μg EPO)	Spleen: Liver Ratio (Balb/c mice [2]; mRNA dose 5 μg FLUC + 5 μg EPO)	hEPO (Balb/c mice [4])	further results
7.57	95.9%	0.06	73.83 nm	CCCCCC(CCCCC)CCCOC(=O)CCCCCCCN(CCCCCCCC(=O)OCCCC(CCCCC)CCCCC)C(=O)CCN1CCCC1 [Compound 2141, bis(4-pentylnonyl) 8,8′-((3-(pyrrolidin-1-yl)propanoyl)azanediyl)dioctanoate]	3.1E + 04	6.8E + 04	1.3E + 05	1.9E + 05	6.131	2.1E + 03	Bioluminescence (IV) Liver (Balb/c mice [2]; [6]): 5.6E + 05; Bioluminescence (IV) Lung (Balb/c mice [2]; [6]): 7.1E + 03; Bioluminescence (IV) Spleen (Balb/c mice [2]; [6]): 2.3E + 05; Bioluminescence (IV) Whole Body (Balb/c mice [2]; [6]): 5.5E + 06; Spleen: Liver Ratio (Balb/c mice [2]; [6]): 0.527; % EE ([3]; LNP with CRE/FLUC 1:1 mRNA): 95.6%; % EE ([3]; LNP with EGFP mRNA): 95.4%; PDI ([5]; LNP with CRE/FLUC 1:1 mRNA): 0.11; Size (nm) ([5]; LNP with CRE/FLUC 1:1 mRNA): 79.4 nm; PDI ([5]; LNP with EGFP mRNA): 0.21; Size (nm) ([5]; LNP with EGFP mRNA): 109.3 nm
6.31	92.2%	0.068	73.75 nm	CCCCCCCCCCCOC(=O)CCCCCN(CCCCCCCC(=O)OC(CCCCCCCC)CCCCCCCC)C(C)(C)CO [Compound 2250, heptadecan-9-yl 8-((1-hydroxy-2-methylpropan-2-yl)(6-oxo-6-(undecyloxy)hexyl)amino)octanoate]	2.7E + 07	7.9E + 03	2.7E + 06	1.5E + 08	0.099	9.5E + 05	–
6.83	91.2%	0.04	85.5 nm	CCCCCC(CCCCC)CCCOC(=O)CCCCCCCN(CCCCCCCC(=O)OCCCC(CCCCC)CCCCC)C(=O)CN1CCCC1 [Compound 2233, bis(4-pentylnonyl) 8,8′-((2-(pyrrolidin-1-yl)acetyl)azanediyl) dioctanoate]	6.1E + 07	4.1E + 04	4.7E + 06	5.4E + 08	0.077	2.8E + 06	–
7.76	97.5%	0.067	84.84 nm	CCCCCC(CCCCC)CCCOC(=O)CCCCCCCN(CCCCCCCC(=O)OCCCC(CCCCC)CCCCC)C(=O)CCN1CCC(O)C1 (centres unmarked) [Compound 2235, bis(4-pentylnonyl) 8,8′-((3-(3-hydroxypyrrolidin-1-yl)propanoyl)azanediyl)dioctanoate]	2.0E + 03	7.6E + 03	2.9E + 04	9.8E + 03	14.407	2.2E + 02	–
7.12	96.3%	0.1	80.18 nm	CCCCCCCCC(CCCCCC)C(=O)OCCCCCCN(CCCCCCOC(=O)C(CCCCCC)CCCCCCCC)C(=O)CCN1CCCC1 (centres unmarked) [Compound 2215, ((3-(pyrrolidin-1-yl)propanoyl)azanediyl)bis (hexane-6,1-diyl) bis(2-hexyldecanoate)]	2.2E + 06	6.5E + 04	6.6E + 05	3.2E + 07	0.449	–	–

SMILES	pKa (TNS) [1]	% EE ([3]; LNP with FLUC/EPO 1:1 mRNA)	PDI ([5]; LNP with FLUC/EPO 1:1 mRNA)	Size (nm) ([5]; LNP with FLUC/EPO 1:1 mRNA)	Bioluminescence (IV) Liver (Balb/c mice [2]; mRNA dose 5 μg FLUC + 5 μg EPO)	Bioluminescence (IV) Lung (Balb/c mice [2]; mRNA dose 5 μg FLUC + 5 μg EPO)	Bioluminescence (IV) Spleen (Balb/c mice [2]; mRNA dose 5 μg FLUC + 5 μg EPO)	Bioluminescence (IV) Whole Body (Balb/c mice [2]; mRNA dose 5 μg FLUC + 5 μg EPO)	Spleen: Liver Ratio (Balb/c mice [2]; mRNA dose 5 μg FLUC + 5 μg EPO)	hEPO (Balb/c mice [4])	further results
CCCCCCCCCCCOC(=O)CCCCCN(CCCCCCCC(=O)OC(CCCCCCCC)CCCCCCCC)C(C)CO (centres unmarked) [Compound 2249, heptadecan-9-yl 8-((1-hydroxypropan-2-yl)(6-oxo-6-(undecyloxy)hexyl)amino)octanoate]	5.84	93.3%	0.08	86.05 nm	1.2E + 07	7.9E + 03	3.2E + 06	7.2E + 07	0.258	7.6E + 05	–
CCCCCCC(CCCCCC)CCCOC(=O)CCCCCCCN(CCCCCCCC(=O)OCCCC(CCCCCC)CCCCCC)C(=O)CCCN(C)C [Compound 2133, bis(4-hexyldecyl) 8,8′-((4-(dimethylamino)butanoyl)azanediyl) dioctanoate]	7.96	98.7%	0.08	87.7 nm	4.4E + 04	5.8E + 04	3.9E + 04	3.8E + 04	1.574	2.5E + 02	–
